Earlier results in US6774247B2, “Aqueous solution of ascorbic acid and method for producing same” (AquaNova German Solubilisate Technology (AGT) GmbH, priority 2001, dated 2004).

Details: aqueous ascorbic acid solution, after 30 days

added ascorbic acid still present: about 70%
Compound: O=C1O[C@H]([C@@H](O)CO)C(O)=C1O [ascorbic acid]
